According to patent US20040053999A1, “Novel compounds and methods for synthesis and therapy” (priority 1997, published 2004):

Experiments:
influenza = settings: mice, Ryan et al. 1994, cited from earlier work
[1] = in vivo; cited from earlier work
[2] = mouse, in vivo, cited from earlier work
neuraminidase = target: T1, neuraminidase (UniProt P03468); assay type: biochemical; settings: enzyme inhibition in vitro
T1 construct: IC50; other: compound incubated in enzyme assay buffer before the test
T1 sequence (P03468 whole entry): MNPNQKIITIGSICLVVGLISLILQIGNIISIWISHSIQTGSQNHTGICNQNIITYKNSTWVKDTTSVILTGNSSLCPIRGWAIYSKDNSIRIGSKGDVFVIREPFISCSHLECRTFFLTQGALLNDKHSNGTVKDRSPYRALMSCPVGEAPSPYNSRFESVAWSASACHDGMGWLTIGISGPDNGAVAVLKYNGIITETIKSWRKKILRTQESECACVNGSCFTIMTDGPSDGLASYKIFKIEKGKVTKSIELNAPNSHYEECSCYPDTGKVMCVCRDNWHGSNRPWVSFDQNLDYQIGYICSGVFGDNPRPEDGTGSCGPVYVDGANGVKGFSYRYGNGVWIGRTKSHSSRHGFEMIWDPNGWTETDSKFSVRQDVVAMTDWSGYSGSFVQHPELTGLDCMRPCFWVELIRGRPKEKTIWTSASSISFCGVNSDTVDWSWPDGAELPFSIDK

Question: Which In vivo activity (influenza; intraperitoneal administration) does the source give for `CC(=O)N[C@H]1[C@H]([C@H](O)[C@H](O)CO)OC(C(=O)O)=C[C@@H]1N=C(N)N` [GG167, 4-guanidino-2,4-dideoxy-2,3-dehydro-N-acetylneuraminic acid] here?
Answer: Its In vivo activity is “relatively poor”.

Question: What about the Efficacy (influenza; oral dosing) of the same molecule?
Answer: Its Efficacy is “poor”.

Question: And the Toxicity [1]?
Answer: The Toxicity was “similarly nontoxic”.

Question: And the Bioavailability ([2]; ip)?
Answer: The Bioavailability was “good”.

Question: And the Oral bioavailability ([2]; po)?
Answer: The Oral bioavailability was “poor”.

Question: And the “Clearance from the plasma” value [2]?
Answer: The value was “rapid”.

Question: With `CC(=O)N[C@H]1[C@H](O)C=C(C(=O)O)C[C@@H]1N=C(N)N` [compound 94] as the molecule, how does the IC50 (neuraminidase) read?
Answer: Its IC50 is less than 1000 nM.

Question: For `COCO[C@@H]1C=C(C(=O)O)C[C@H](N)[C@H]1NC(C)=O` [compound 114], which IC50 (neuraminidase) is on record?
Answer: Its IC50 is 1000 to 10000 nM.
